Test results from US8367357B2, “Two secretory luciferases” (National Institute of Advanced Industrial Science and …, priority 2006, dated 2013).

How the values were obtained:
copepod luciferase = assay: ratio of luminescence to self-luminescence by copepod luciferase; type: biochemical; conditions: 10 μM or 100 μM coelenterazine, copepod luciferase medium with 10% FBS, with sodium ascorbate salt solution
Description: Using the medium (containing 10% FBS) of copepod luciferase secreted from the animal cells, the coelenterazine solution prepared in Example 8 was dissolved at a final concentration of 10 μM or 100 μM, and the resulting solution was mixed with the medium (containing 10% FBS) for the animal cells at 1:1 (volume ratio), and the luminescence for 10 seconds was measured as the background activity. At that time, a reaction solution was 0.1M Tris-HCl pH 7.4/0.3 M, and the effect with or without the addition of 0.3 M […] was examined. The luminescence activity was measured, the ratio of the actually measured value to the self-luminescence (signal to background) was calculated, and collectively shown in FIG. 9. […] This way, the antioxidant has almost no effect on the oxidation reaction by luciferase and could reduce only the background.

[1] = residual activity / half life of coelenterazine in solutions with or without antioxidant; type: physicochemical; conditions: 10 μM coelenterazine, 0.1M Tris-HCl pH 7.4/0.3 M Sodium ascorbate vs NaCl, Na2SO3, Thiourea solutions
Description: The following four solutions were prepared, coelenterazine was dissolved at a final concentration of 10 μM, and the residual activity of coelenterazine was examined to determine a half life. In FIG. 7, the half life is shown in the solution of (1) 0.1M Tris-HCl pH 7.4/0.3 M NaCl, (2) 0.1M Tris-HCl pH 7.4/0.3 M Sodium ascorbate, (3) 0.1M Tris-HCl pH 7.4/0.2 M Na2SO3 or (4) 0.1M Tris-HCl pH 7.4/0.2 M Thiourea. […] It is desirable to add sodium ascorbate in the dual reporter assay.

[2] = self-luminescence activity of coelenterazine in 10% FBS solution; type: physicochemical; conditions: 10 μM or 100 μM coelenterazine, 10% FBS medium, with sodium ascorbate salt solution
Description: The following two solutions were prepared, coelenterazine was dissolved at a final concentration of 10 μM or 100 μM, the solution was mixed with the medium for animal cells (solution containing 10% FBS), and the luminescence for 10 seconds was measured as the background. […] The luminescence activity (RLU: relative light unit) was measured, the ratio of its actually measured value to the self-luminescence was calculated and correctively shown in FIG. 8.

ratio of the luminescence to the self-luminescence (signal to background) (copepod luciferase): at least two times or more | half life [1]: widely prolonged | self-luminescence (background, RLU) [2]: reduction of the self-luminescence
SMILES: Oc1ccc(Cc2nc3c(Cc4ccccc4)nc(-c4ccc(O)cc4)cn3c2O)cc1 [coelenterazine]
